Measured values as given in ChEMBL document CHEMBL1671722, “Comparative in vitro activity profiles of novel bis-indole antibacterials against gram-positive and gram-negative clinical isolates” (Antimicrob Agents Chemother, 2010).
In brackets after ≈: the same amount, converted by molar mass.

Legend:
[1] = system: Staphylococcus epidermidis; test: Antimicrobial activity against methicillin-resistant Staphylococcus epidermidis by broth microdilution method; type: functional
Staphylococcus aureus [2] = test: Antimicrobial activity against methicillin-susceptible Staphylococcus aureus by broth microdilution method; type: functional
Streptococcus pneumoniae [3] = test: Antimicrobial activity against penicillin-susceptible Streptococcus pneumoniae by broth microdilution method; type: functional
Streptococcus agalactiae = test: Antimicrobial activity against Streptococcus agalactiae by broth microdilution method; type: functional
[4] = system: Staphylococcus epidermidis; test: Antimicrobial activity against methicillin-susceptible Staphylococcus epidermidis by broth microdilution method; type: functional
Proteus mirabilis = test: Antimicrobial activity against Proteus mirabilis by broth microdilution method; type: functional
Streptococcus pneumoniae [5] = test: Antimicrobial activity against penicillin-intermediate Streptococcus pneumoniae by broth microdilution method; type: functional
Escherichia coli = test: Antimicrobial activity against Escherichia coli by broth microdilution method; type: functional
Enterococcus faecium [6] = test: Antimicrobial activity against vancomycin-susceptible Enterococcus faecium by broth microdilution method; type: functional
Enterococcus faecalis [7] = test: Antimicrobial activity against vancomycin-resistant Enterococcus faecalis by broth microdilution method; type: functional
Serratia marcescens = test: Antimicrobial activity against Serratia marcescens by broth microdilution method; type: functional
Clostridioides difficile = test: Antimicrobial activity against Clostridium difficile by broth microdilution method; type: functional
Pseudomonas aeruginosa = test: Antimicrobial activity against Pseudomonas aeruginosa by broth microdilution method; type: functional
Burkholderia cepacia = test: Antimicrobial activity against Burkholderia cepacia by broth microdilution method; type: functional
Staphylococcus aureus [8] = test: Antimicrobial activity against methicillin-resistant Staphylococcus aureus by broth microdilution method; type: functional
Enterococcus faecium [9] = test: Antimicrobial activity against vancomycin-resistant Enterococcus faecium by broth microdilution method; type: functional
Acinetobacter baumannii [10] = test: Antimicrobial activity against Acinetobacter baumannii by broth microdilution method; type: functional
Acinetobacter baumannii [11] = test: Antimicrobial activity against multiple dug-resistant Acinetobacter baumannii by broth microdilution method; type: functional
Enterococcus faecalis [12] = test: Antimicrobial activity against vancomycin-susceptible Enterococcus faecalis by broth microdilution method; type: functional
Klebsiella pneumoniae [13] = test: Antimicrobial activity against Klebsiella pneumoniae by broth microdilution method; type: functional
[14] = Cytotoxicity against HeLa cells after 3 days by MTS assay; type: cell-based; details: human
Klebsiella pneumoniae [15] = test: Antimicrobial activity against ESBL-production Klebsiella pneumoniae by broth microdilution method; type: functional
Haemophilus influenzae = test: Antimicrobial activity against Haemophilus influenzae by broth microdilution method; type: functional
Streptococcus pneumoniae [16] = test: Antimicrobial activity against penicillin-resistant Streptococcus pneumoniae by broth microdilution method; type: functional

## c1cc2cc(-c3ccc(-c4cc5ccc(C6=NCCCN6)cc5[nH]4)cc3)[nH]c2cc1C1=NCCCN1
[1]
  MIC50: 0.015 µg/mL (≈ 0.0317 µM)
  MIC90: 0.06 µg/mL (≈ 0.127 µM)
Staphylococcus aureus [2]
  MIC50: 0.12 µg/mL (≈ 0.254 µM)
  MIC90: 0.5 µg/mL (≈ 1.06 µM)
Streptococcus pneumoniae [3]
  MIC50: 0.03 µg/mL (≈ 0.0635 µM)
  MIC90: 0.03 µg/mL (≈ 0.0635 µM)
Streptococcus agalactiae
  MIC: 0.03 µg/mL (≈ 0.0635 µM)
  MIC50: 0.03 µg/mL (≈ 0.0635 µM)
  MIC90: 0.03 µg/mL (≈ 0.0635 µM)
[4]
  MIC50: 0.03 µg/mL (≈ 0.0635 µM)
  MIC90: 0.06 µg/mL (≈ 0.127 µM)
Proteus mirabilis
  MIC50: 1 µg/mL (≈ 2.12 µM)
  MIC90: 2 µg/mL (≈ 4.23 µM)
Streptococcus pneumoniae [5]
  MIC50: 0.03 µg/mL (≈ 0.0635 µM)
  MIC90: 0.03 µg/mL (≈ 0.0635 µM)
Escherichia coli
  MIC50: 0.12 µg/mL (≈ 0.254 µM)
  MIC90: 0.25 µg/mL (≈ 0.529 µM)
Enterococcus faecium [6]
  MIC50: 0.004 µg/mL (≈ 0.00846 µM)
  MIC90: 0.015 µg/mL (≈ 0.0317 µM)
Enterococcus faecalis [7]
  MIC50: 0.015 µg/mL (≈ 0.0317 µM)
  MIC90: 0.03 µg/mL (≈ 0.0635 µM)
Serratia marcescens
  MIC: 0.12 µg/mL (≈ 0.254 µM)
  MIC50: 0.12 µg/mL (≈ 0.254 µM)
  MIC90: 0.25 µg/mL (≈ 0.529 µM)
Clostridioides difficile
  MIC50: 0.06 µg/mL (≈ 0.127 µM)
  MIC90: 0.12 µg/mL (≈ 0.254 µM)
Pseudomonas aeruginosa
  MIC50: 0.25 µg/mL (≈ 0.529 µM)
  MIC90: 1 µg/mL (≈ 2.12 µM)
Burkholderia cepacia
  MIC50: 0.06 µg/mL (≈ 0.127 µM)
  MIC90: 0.12 µg/mL (≈ 0.254 µM)
Staphylococcus aureus [8]
  MIC50: 0.06 µg/mL (≈ 0.127 µM)
  MIC90: 0.12 µg/mL (≈ 0.254 µM)
Enterococcus faecium [9]
  MIC: 0.004 µg/mL (≈ 0.00846 µM)
  MIC50: 0.004 µg/mL (≈ 0.00846 µM)
  MIC90: 0.004 µg/mL (≈ 0.00846 µM)
Acinetobacter baumannii [10]
  MIC50: 0.5 µg/mL (≈ 1.06 µM)
  MIC90: 4 µg/mL (≈ 8.46 µM)
Acinetobacter baumannii [11]
  MIC50: 2 µg/mL (≈ 4.23 µM)
  MIC90: 4 µg/mL (≈ 8.46 µM)
Enterococcus faecalis [12]
  MIC50: 0.06 µg/mL (≈ 0.127 µM)
  MIC90: 0.06 µg/mL (≈ 0.127 µM)
Klebsiella pneumoniae [13]
  MIC50: 0.25 µg/mL (≈ 0.529 µM)
  MIC90: 0.5 µg/mL (≈ 1.06 µM)
[14]
  CC50 at 72 h: 4 µg/mL (≈ 8.46 µM)
Klebsiella pneumoniae [15]
  MIC50: 0.12 µg/mL (≈ 0.254 µM)
  MIC90: 0.5 µg/mL (≈ 1.06 µM)
Haemophilus influenzae
  MIC50: 1 µg/mL (≈ 2.12 µM)
  MIC90: 4 µg/mL (≈ 8.46 µM)
Streptococcus pneumoniae [16]
  MIC50: 0.03 µg/mL (≈ 0.0635 µM)
  MIC90: 0.06 µg/mL (≈ 0.127 µM)

## CCCCCCCCCC(=O)N[C@@H](Cc1c[nH]c2ccccc12)C(=O)N[C@H](CC(N)=O)C(=O)N[C@@H](CC(=O)O)C(=O)N[C@@H]1C(=O)NCC(=O)N[C@@H](CCCN)C(=O)N[C@@H](CC(=O)O)C(=O)N[C@H](C)C(=O)N[C@@H](CC(=O)O)C(=O)NCC(=O)N[C@H](CO)C(=O)N[C@@H]([C@H](C)CC(=O)O)C(=O)N[C@@H](CC(=O)c2ccccc2N)C(=O)O[C@@H]1C
[1]
  MIC: 0.5 µg/mL (≈ 0.309 µM)
  MIC50: 0.5 µg/mL (≈ 0.309 µM)
  MIC90: 1 µg/mL (≈ 0.617 µM)
Staphylococcus aureus [2]
  MIC50: 0.5 µg/mL (≈ 0.309 µM)
  MIC90: 0.5 µg/mL (≈ 0.309 µM)
Streptococcus pneumoniae [3]
  MIC50: 0.06 µg/mL (≈ 0.037 µM)
  MIC90: 0.25 µg/mL (≈ 0.154 µM)
Streptococcus agalactiae
  MIC50: 0.5 µg/mL (≈ 0.309 µM)
  MIC90: 2 µg/mL (≈ 1.23 µM)
[4]
  MIC: 0.5 µg/mL (≈ 0.309 µM)
  MIC50: 0.5 µg/mL (≈ 0.309 µM)
  MIC90: 1 µg/mL (≈ 0.617 µM)
Streptococcus pneumoniae [5]
  MIC50: 0.06 µg/mL (≈ 0.037 µM)
  MIC90: 0.25 µg/mL (≈ 0.154 µM)
Enterococcus faecium [6]
  MIC50: 4 µg/mL (≈ 2.47 µM)
  MIC90: 4 µg/mL (≈ 2.47 µM)
Enterococcus faecalis [7]
  MIC50: 0.5 µg/mL (≈ 0.309 µM)
  MIC90: 2 µg/mL (≈ 1.23 µM)
Staphylococcus aureus [8]
  MIC50: 0.25 µg/mL (≈ 0.154 µM)
  MIC90: 0.25 µg/mL (≈ 0.154 µM)
Enterococcus faecium [9]
  MIC50: 2 µg/mL (≈ 1.23 µM)
  MIC90: 4 µg/mL (≈ 2.47 µM)
Enterococcus faecalis [12]
  MIC50: 1 µg/mL (≈ 0.617 µM)
  MIC90: 2 µg/mL (≈ 1.23 µM)
Streptococcus pneumoniae [16]
  MIC50: 0.06 µg/mL (≈ 0.037 µM)
  MIC90: 0.12 µg/mL (≈ 0.074 µM)

## CO/N=C(\C(=O)N[C@@H]1C(=O)N2C(C(=O)O)=C(COC(C)=O)CS[C@H]12)c1csc(N)n1 [CEFOTAXIME]
Haemophilus influenzae
  MIC50: 1 µg/mL (≈ 2.2 µM)
  MIC90: > 4 µg/mL

## O=C(O)c1cn(C2CC2)c2cc(N3CCNCC3)c(F)cc2c1=O [CIPROFLOXACIN]
Proteus mirabilis
  MIC50: 2 µg/mL (≈ 6.04 µM)
  MIC90: > 8 µg/mL
Escherichia coli
  MIC50: 2 µg/mL (≈ 6.04 µM)
  MIC90: 4 µg/mL (≈ 12.1 µM)
Pseudomonas aeruginosa
  MIC: > 8 µg/mL
  MIC50: > 8 µg/mL
  MIC90: > 8 µg/mL
Burkholderia cepacia
  MIC50: 2 µg/mL (≈ 6.04 µM)
  MIC90: 2 µg/mL (≈ 6.04 µM)
Acinetobacter baumannii [10]
  MIC50: 0.25 µg/mL (≈ 0.754 µM)
  MIC90: > 2 µg/mL
Acinetobacter baumannii [11]
  MIC50: 2 µg/mL (≈ 6.04 µM)
  MIC90: 4 µg/mL (≈ 12.1 µM)
Klebsiella pneumoniae [13]
  MIC50: > 32 µg/mL
  MIC90: > 32 µg/mL
Klebsiella pneumoniae [15]
  MIC50: > 8 µg/mL
  MIC90: > 8 µg/mL

## CCC[C@@H]1C[C@@H](C(=O)N[C@@H]([C@H]2O[C@H](SC)[C@H](O)[C@@H](O)[C@H]2O)[C@H](C)Cl)N(C)C1 [CLINDAMYCIN]
Clostridioides difficile
  MIC50: 4 µg/mL (≈ 9.41 µM)
  MIC90: > 8 µg/mL

## C[C@@H](O)[C@H]1C(=O)N2C(C(=O)O)=C(SCCNC=N)C[C@H]12 [IMIPENEM ANHYDROUS]
[1]
  MIC50: 8 µg/mL (≈ 26.7 µM)
  MIC90: > 8 µg/mL
Staphylococcus aureus [2]
  MIC50: 0.015 µg/mL (≈ 0.0501 µM)
  MIC90: 0.03 µg/mL (≈ 0.1 µM)
Streptococcus pneumoniae [3]
  MIC: < 0.008 µg/mL
  MIC50: < 0.008 µg/mL
  MIC90: < 0.008 µg/mL
Streptococcus agalactiae
  MIC: 0.06 µg/mL (≈ 0.2 µM)
  MIC50: 0.06 µg/mL (≈ 0.2 µM)
  MIC90: 0.06 µg/mL (≈ 0.2 µM)
[4]
  MIC: 0.015 µg/mL (≈ 0.0501 µM)
  MIC50: 0.015 µg/mL (≈ 0.0501 µM)
  MIC90: 0.015 µg/mL (≈ 0.0501 µM)
Proteus mirabilis
  MIC50: 4 µg/mL (≈ 13.4 µM)
  MIC90: 8 µg/mL (≈ 26.7 µM)
Streptococcus pneumoniae [5]
  MIC50: 0.03 µg/mL (≈ 0.1 µM)
  MIC90: 0.25 µg/mL (≈ 0.835 µM)
Escherichia coli
  MIC50: 0.25 µg/mL (≈ 0.835 µM)
  MIC90: 0.25 µg/mL (≈ 0.835 µM)
Enterococcus faecium [6]
  MIC50: > 8 µg/mL
  MIC90: > 8 µg/mL
Enterococcus faecalis [7]
  MIC50: 2 µg/mL (≈ 6.68 µM)
  MIC90: 2 µg/mL (≈ 6.68 µM)
Serratia marcescens
  MIC50: 4 µg/mL (≈ 13.4 µM)
  MIC90: > 8 µg/mL
Clostridioides difficile
  MIC50: 4 µg/mL (≈ 13.4 µM)
  MIC90: 8 µg/mL (≈ 26.7 µM)
Pseudomonas aeruginosa
  MIC: 0.05 µg/mL (≈ 0.167 µM)
  MIC50: 1 µg/mL (≈ 3.34 µM)
  MIC90: > 8 µg/mL
Burkholderia cepacia
  MIC: 4 µg/mL (≈ 13.4 µM)
  MIC50: 4 µg/mL (≈ 13.4 µM)
  MIC90: > 8 µg/mL
Staphylococcus aureus [8]
  MIC50: 1 µg/mL (≈ 3.34 µM)
  MIC90: 8 µg/mL (≈ 26.7 µM)
Enterococcus faecium [9]
  MIC: 8 µg/mL (≈ 26.7 µM)
  MIC50: 8 µg/mL (≈ 26.7 µM)
  MIC90: 8 µg/mL (≈ 26.7 µM)
Acinetobacter baumannii [10]
  MIC90: > 32 µg/mL
Acinetobacter baumannii [11]
  MIC50: 4 µg/mL (≈ 13.4 µM)
Enterococcus faecalis [12]
  MIC50: 1 µg/mL (≈ 3.34 µM)
  MIC90: 4 µg/mL (≈ 13.4 µM)
Klebsiella pneumoniae [13]
  MIC50: 0.12 µg/mL (≈ 0.401 µM)
  MIC90: 1 µg/mL (≈ 3.34 µM)
Klebsiella pneumoniae [15]
  MIC50: 0.25 µg/mL (≈ 0.835 µM)
  MIC90: 1 µg/mL (≈ 3.34 µM)
Streptococcus pneumoniae [16]
  MIC50: 0.25 µg/mL (≈ 0.835 µM)
  MIC90: 1 µg/mL (≈ 3.34 µM)
